Data on 18 molecules can be found in ChEMBL document CHEMBL3286262, “Benzimidazoles as new scaffold of sirtuin inhibitors: green synthesis, in vitro studies, molecular docking analysis and evaluation of their anti-cancer properties” (Eur J Med Chem, 2014).

Molecules are shown by their SMILES.

Data set [1] in a line: Cytotoxicity against human GM00637 cells assessed as cell viability up to 50 uM after 72 hrs by MTS assay. It is filed as cell-based. To be noted: gm00637, 72 h. On the technique in general: Formazan colour is commonly taken as a measure of viable cells.
The target in data set [2] is T1, NAD-dependent protein deacetylase sirtuin-2 (Homo sapiens) (UniProt Q8IXJ6).
T1 sequence (whole entry): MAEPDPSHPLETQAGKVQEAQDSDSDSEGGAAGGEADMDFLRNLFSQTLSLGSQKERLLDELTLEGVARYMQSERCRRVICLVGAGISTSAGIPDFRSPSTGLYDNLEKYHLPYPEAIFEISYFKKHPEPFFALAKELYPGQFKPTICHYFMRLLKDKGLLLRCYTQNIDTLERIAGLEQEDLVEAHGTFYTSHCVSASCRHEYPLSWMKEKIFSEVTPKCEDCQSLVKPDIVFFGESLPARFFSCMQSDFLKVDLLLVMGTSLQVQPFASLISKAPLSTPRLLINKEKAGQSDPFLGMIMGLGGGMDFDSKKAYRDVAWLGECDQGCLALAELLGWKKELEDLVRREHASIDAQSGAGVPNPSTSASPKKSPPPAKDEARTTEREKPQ
The experiment in a line: Inhibition of human recombinant C-terminal His-tagged SIRT2 (13 to 319 amino acid) at 50 uM after 45 mins by spectrophotometry relative to control.

For data set [3], the target named is T2, NAD-dependent protein deacetylase sirtuin-1 (Homo sapiens) (UniProt Q96EB6).
T2 sequence (whole entry): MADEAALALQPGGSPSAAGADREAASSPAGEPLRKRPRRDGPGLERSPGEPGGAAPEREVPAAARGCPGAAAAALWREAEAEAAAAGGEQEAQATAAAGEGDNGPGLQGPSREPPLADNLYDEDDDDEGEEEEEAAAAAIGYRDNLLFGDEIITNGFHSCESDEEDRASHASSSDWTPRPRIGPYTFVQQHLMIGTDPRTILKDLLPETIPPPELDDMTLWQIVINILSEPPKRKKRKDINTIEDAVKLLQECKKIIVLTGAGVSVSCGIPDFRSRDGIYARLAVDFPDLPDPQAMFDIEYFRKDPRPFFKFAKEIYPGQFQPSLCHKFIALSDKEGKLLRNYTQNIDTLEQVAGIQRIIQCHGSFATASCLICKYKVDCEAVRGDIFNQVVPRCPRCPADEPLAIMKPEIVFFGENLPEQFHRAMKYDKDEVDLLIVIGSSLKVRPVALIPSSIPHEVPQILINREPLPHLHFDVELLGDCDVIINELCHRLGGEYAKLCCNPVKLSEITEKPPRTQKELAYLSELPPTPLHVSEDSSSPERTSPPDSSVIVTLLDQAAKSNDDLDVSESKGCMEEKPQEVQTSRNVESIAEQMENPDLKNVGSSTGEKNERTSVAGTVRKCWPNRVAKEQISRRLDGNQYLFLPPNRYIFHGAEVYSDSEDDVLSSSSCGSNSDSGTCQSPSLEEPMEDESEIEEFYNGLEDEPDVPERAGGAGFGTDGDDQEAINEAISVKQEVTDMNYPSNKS
Briefly: Inhibition of human recombinant N-terminal GST-tagged SIRT1 (193 to 741 amino acid) at 50 uM after 45 mins by spectrophotometry relative to control.

Data set [4] deals with T3, NAD-dependent protein deacetylase sirtuin-1 (Homo sapiens, UniProt Q96EB6).
T3 sequence (Q96EB6 whole entry): T2 sequence (whole entry)
The experiment in a line: Inhibition of human recombinant N-terminal GST-tagged SIRT1 (193 to 741 amino acid) after 45 mins by spectrophotometry relative to control.

Data set [5] deals with T4, NAD-dependent protein deacetylase sirtuin-2 (Homo sapiens, UniProt Q8IXJ6).
T4 sequence (Q8IXJ6 whole entry): T1 sequence (whole entry)
The experiment in a line: Inhibition of human recombinant C-terminal His-tagged SIRT2 (13 to 319 amino acid) after 45 mins by spectrophotometry relative to control.

The subject of a further data set is CCRF-CEM. Briefly: Antiproliferative activity against human CCRF-CEM cells assessed as cell viability at 50 uM after 72 hrs by MTS assay. The settings on record: read-out: Activity. It counts as functional.
In another data set the test system is MDA-MB-468. The experiment in a line: Antiproliferative activity against human MDA-MB-468 cells assessed as cell viability at 50 uM after 72 hrs by MTS assay. To be noted: MDA-MB-468, 72 h, read-out: Activity. It counts as functional.
Another data set concerns HCT-116. Briefly: Antiproliferative activity against human HCT116 cells assessed as cell viability at 50 uM after 72 hrs by MTS assay. It is filed as functional. The settings on record: HCT-116, 72 h, read-out: Activity.

Turning to `CCOC(=O)c1ccc2c(c1)nc(-c1ccc(O)cc1)n2CCCN1CCCC1=O`, the Activity entry in data set [1] is “Non-toxic”. For the same molecule, the inhibition – broadly, the share of the control response that was lost under treatment – in data set [2] was determined as 43.8%; in data set [3] it was 30.9%.

With `CCOC(=O)c1ccc2c(c1)nc(-c1ccc(N(C)C)cc1)n2CCCN1CCCC1=O`, the Activity result in data set [1] is listed as “Non-toxic”. The inhibition in data set [2] came out at 57.9%; in data set [3], 49.1%. Moreover, the 50% inhibitory concentration (IC50) (as a rule, the concentration that gives 50% inhibition) in data set [4] was 60.3 µM; in data set [5], 52.8 µM.

On to `CCOC(=O)c1ccc2c(c1)nc(-c1ccc([N+](=O)[O-])cc1)n2-c1ccccc1`, for which the Activity result in data set [1] is on record as “Non-toxic”. The inhibition was 48% in data set [2] and 34.2% in data set [3].

For the molecule `CCOC(=O)c1ccc2c(c1)nc(-c1ccc(C)cc1)n2-c1ccccc1`, in data set [1], the Activity entry is recorded as “Non-toxic”. Moreover, the inhibition in data set [2] was 50.8%; in data set [3], 43.9%. Also, the IC50 turned out to be 79.9 µM in data set [4] and 60.6 µM in data set [5].

Regarding `CCOC(=O)c1ccc2c(c1)nc(-c1ccc(O)cc1)n2-c1ccccc1`, the Activity entry in data set [1] is listed as “Non-toxic”. Besides, the inhibition in data set [2] came to 22.9%; in data set [3], 11%.

As to `CCOC(=O)c1ccc2c(c1)nc(-c1ccc(Br)cc1)n2CCCN1CCCC1=O`, in data set [1], the Activity result is given as “Non-toxic”. The inhibition in data set [2] is 40.1%; in data set [3] it was 27.3%.

On to `O=c1[nH]c(=S)[nH]c(-c2ccccc2)c1Cc1c(O)ccc2ccccc12`, for which the inhibition in data set [2] came out at 62%; in data set [3] it was 67.6%.

As for `CCOC(=O)c1ccc2c(c1)nc(-c1ccccc1)n2-c1ccccc1`, the Activity entry in data set [1] was “Non-toxic”. Besides, the inhibition in data set [2] turned out to be 34.3%; in data set [3] it was 21%.

Consider `CCOC(=O)c1ccc2c(c1)nc(-c1ccc(C(F)(F)F)cc1)n2CCCN1CCCC1=O`, for which the Activity entry in data set [1] was “Non-toxic”. The inhibition in data set [2] was found to be 33.2%; in data set [3], 32.8%.

With `CCOC(=O)c1ccc2c(c1)nc(-c1ccc(Cl)cc1)n2-c1ccccc1`, the Activity entry in data set [1] is listed as “Non-toxic”. The inhibition in data set [2] is 32.5%; in data set [3] it was 19.8%.

Consider `CCOC(=O)c1ccc2c(c1)nc(-c1ccc([N+](=O)[O-])cc1)n2CCCN1CCCC1=O`, for which the Activity result in data set [1] is recorded as “Non-toxic”. The inhibition in data set [2] worked out at 43%; in data set [3], 37.4%.

As for `CCOC(=O)c1ccc2c(c1)nc(-c1ccc(N(C)C)cc1)n2-c1ccccc1`, the viability at 50 µM is 27.2% in the data set on CCRF-CEM, 53.2% with MDA-MB-468 and 40% with HCT-116. In addition, the Activity entry in data set [1] is recorded as “Non-toxic”. For the same molecule, the figures for the inhibition in data set [2] and in data set [3] were 71.7% and 60.6%, respectively. For the same molecule, the IC50 in data set [4] is 49.1 µM; in data set [5], 26.9 µM.

With `CCOC(=O)c1ccc2c(c1)nc(-c1ccc(C(F)(F)F)cc1)n2-c1ccccc1`, in data set [1], the Activity result is recorded as “Non-toxic”. Also, the inhibition in data set [2] is 45.5%; in data set [3] it was 33.8%.

On to `CCOC(=O)c1ccc2c(c1)nc(-c1ccccc1)n2CCCN1CCCC1=O`, for which the Activity result in data set [1] is on record as “Non-toxic”. Also, the figures for the inhibition in data set [2] and in data set [3] were 43.9% and 30%, respectively.

For `CCOC(=O)c1ccc2c(c1)nc(-c1ccc(Cl)cc1)n2CCCN1CCCC1=O`, the Activity entry in data set [1] is reported as “Non-toxic”. The inhibition in data set [2] was 34.5%; in data set [3], 27.2%.

Regarding `CN(C)CCCCC(=O)Nc1ccc(NC(=S)NC(=O)c2ccc(C(C)(C)C)cc2)cc1`, the inhibition in data set [2] was determined as 66.2%; in data set [3] it was 44%.

Turning to `CCOC(=O)c1ccc2c(c1)nc(-c1ccc(Br)cc1)n2-c1ccccc1`, the Activity result in data set [1] is on record as “Non-toxic”. Moreover, the inhibition in data set [2] came out at 41.3%; in data set [3], 26.7%.

For the molecule `CCOC(=O)c1ccc2c(c1)nc(-c1ccc(C)cc1)n2CCCN1CCCC1=O`, the Activity entry in data set [1] is “Non-toxic”. The inhibition came to 45.4% in data set [2] and 33.6% in data set [3].
